ChEMBL document CHEMBL5321223, “Effects and mechanism of action of Chrysanthemum morifolium (Jinsi Huangju) on hyperlipidemia and non-alcoholic fatty liver disease” (Eur J Med Chem, 2023)
Calls of active or inactive are those of the source. The rule behind the calls is not given here.

How the values were obtained:
[1] = system: HepG2; test: Hypolipidemic activity in sodium oleate and sodium palmitate induced human HepG2 cells assessed as decrease in intracellular lipid content at 5 uM by Oil Red O staining based assay; type: functional; design: scale not given: the % may be the effect or the level left
[2] = system: HepG2; test: Hypolipidemic activity in sodium oleate and sodium palmitate induced human HepG2 cells assessed as decrease in intracellular lipid content at 50 uM by Oil Red O staining based assay; type: functional; design: scale not given: the % may be the effect or the level left
[3] = target: T1, Pancreatic triacylglycerol lipase (Homo sapiens) (UniProt P16233); test: Inhibition of Pancreatic lipase (unknown origin) using 4-methylumbelleallyl oleate as substrate at 5 uM by microplate reader assay
T1 sequence (whole entry): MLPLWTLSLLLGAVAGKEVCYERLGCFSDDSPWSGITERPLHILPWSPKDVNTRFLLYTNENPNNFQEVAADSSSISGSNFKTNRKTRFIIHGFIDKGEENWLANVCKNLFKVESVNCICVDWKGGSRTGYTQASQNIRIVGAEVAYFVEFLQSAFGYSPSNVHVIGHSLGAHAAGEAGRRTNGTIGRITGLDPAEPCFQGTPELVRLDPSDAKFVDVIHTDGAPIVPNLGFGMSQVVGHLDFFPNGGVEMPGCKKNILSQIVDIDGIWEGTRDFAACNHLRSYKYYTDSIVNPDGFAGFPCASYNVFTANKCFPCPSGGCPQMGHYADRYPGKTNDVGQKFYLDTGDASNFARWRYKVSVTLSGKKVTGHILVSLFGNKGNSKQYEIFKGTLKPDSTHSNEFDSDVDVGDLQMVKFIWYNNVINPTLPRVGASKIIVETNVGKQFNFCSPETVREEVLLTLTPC

[4] = system: HepG2; test: Cytotoxicity against human HepG2 cells assessed as reduction in cell survival at 50 uM; type: toxicity, cell-based; details: hepg2, 50 µM
[5] = target: T1, Pancreatic triacylglycerol lipase (Homo sapiens); test: Inhibition of Pancreatic lipase (unknown origin) using 4-methylumbelleallyl oleate as substrate at 50 uM by microplate reader assay
[6] = system: HepG2; test: Activation of AMPK signaling pathway in human HepG2 cells assessed as increase in AMPK phosphorylation at 0.2 to 50 uM by Western blot analysis; type: cell-based; details: filed as activator, dose 0.2-50 µM
[7] = system: Mus musculus; test: Amelioration of hepatic lesion in 24hrs fasted tyloxapol induced NAFLD Kunming mouse model assessed as reduction in hepatic steatosis at 50 to 200 mg/kg, IG by H and E staining based analysis; type: functional, organism-based; details: dose 50-200 mg/kg
[8] = Reduction in hepatic inflammation in 24hrs fasted tyloxapol induced NAFLD Kunming mouse model assessed as decrease in IL-6 level in liver at 200 mg/kg, IG and measured after 24 hrs; type: functional; design: scale not given: the % may be the effect or the level left
[9] = system: Mus musculus; test: Reduction in liver damage in 24hrs fasted tyloxapol induced NAFLD Kunming mouse model assessed as decrease in AST level in liver at 50 to 200 mg/kg, IG and measured after 24 hrs by biochemical analysis relative to control; type: functional, organism-based; details: dose 50-200 mg/kg
[10] = system: HepG2; test: Hypolipidemic activity in sodium oleate and sodium palmitate induced human HepG2 cells assessed as decrease in intracellular triglyceride level at 5 uM; type: functional; design: scale not given: the % may be the effect or the level left
[11] = system: Mus musculus; test: Hypolipidemic activity in 24hrs fasted tyloxapol induced NAFLD Kunming mouse model assessed as increase in hepatic HDL-C level at 50 to 200 mg/kg, IG and measured after 24 hrs by biochemical analysis relative to control; type: functional, organism-based; details: dose 50-200 mg/kg
[12] = system: Mus musculus; test: Hypolipidemic activity in 24hrs fasted tyloxapol induced NAFLD Kunming mouse model assessed as decrease in serum TC level at 50 to 200 mg/kg, IG and measured after 24 hrs by biochemical analysis relative to control; type: functional, organism-based; details: dose 50-200 mg/kg
[13] = system: Mus musculus; test: Hypolipidemic activity in 24hrs fasted tyloxapol induced NAFLD Kunming mouse model assessed as increase in serum HDL-C level at 50 to 200 mg/kg, IG and measured after 24 hrs by biochemical analysis relative to control; type: functional, organism-based; details: dose 50-200 mg/kg
[14] = Reduction in hepatic inflammation in 24hrs fasted tyloxapol induced NAFLD Kunming mouse model assessed as decrease in IL-6 level in liver at 100 mg/kg, IG and measured after 24 hrs; type: functional; design: scale not given: the % may be the effect or the level left
[15] = system: Mus musculus; test: Hypolipidemic activity in 24hrs fasted tyloxapol induced NAFLD Kunming mouse model assessed as decrease in spleen index at 50 to 200 mg/kg, IG relative to control; type: functional, organism-based; details: dose 50-200 mg/kg
[16] = system: HepG2; test: Hypolipidemic activity in sodium oleate and sodium palmitate induced human HepG2 cells assessed as decrease in intracellular triglyceride level at 10 uM; type: functional; design: scale not given: the % may be the effect or the level left
[17] = system: Mus musculus; test: Hypolipidemic activity in 24hrs fasted tyloxapol induced NAFLD Kunming mouse model assessed as decrease in serum TG level at 50 to 200 mg/kg, IG and measured after 24 hrs by biochemical analysis relative to control; type: functional, organism-based; details: dose 50-200 mg/kg
[18] = system: Mus musculus; test: Reduction in oxidative stress in 24hrs fasted tyloxapol induced NAFLD Kunming mouse model assessed as decrease in hepatic MPO level at 50 to 200 mg/kg, IG and measured after 24 hrs by biochemical analysis relative to control; type: functional, organism-based; details: dose 50-200 mg/kg
[19] = system: HepG2; test: Activation of AMPK signaling pathway in human HepG2 cells assessed as increase in ACC phosphorylation at 0.2 to 50 uM by Western blot analysis; type: cell-based; details: filed as activator, dose 0.2-50 µM
[20] = system: HepG2; test: Hypolipidemic activity in sodium oleate and sodium palmitate induced human HepG2 cells assessed as decrease in intracellular triglyceride level at 0.2 uM; type: functional; design: scale not given: the % may be the effect or the level left
[21] = system: HepG2; test: Anti-hyperglycemic activity in 24 hrs serum deprived human HepG2 cells assessed as alleviation in insulin resistance by measuring increase in cellular glucose consumption at 0.2 to 50 uM and measured after 24 hrs by glucose kit anlaysis; type: functional, cell-based; details: dose 0.2-50 µM
[22] = Reduction in hepatic inflammation in 24hrs fasted tyloxapol induced NAFLD Kunming mouse model assessed as decrease in IL-6 level in liver at 50 mg/kg, IG and measured after 24 hrs; type: functional; design: scale not given: the % may be the effect or the level left
[23] = system: Mus musculus; test: Reduction in liver damage in 24hrs fasted tyloxapol induced NAFLD Kunming mouse model assessed as decrease in serum AST level at 50 to 200 mg/kg, IG and measured after 24 hrs by biochemical analysis relative to control; type: functional, organism-based; details: dose 50-200 mg/kg
[24] = system: Mus musculus; test: In vivo activation of AMPK pathway in 24hrs fasted tyloxapol induced NAFLD Kunming mouse model assessed as increase in AMPK phosphorylation in liver at 200 mg/kg, IG and measured after 24 hrs by Western blot anlaysis; type: functional, organism-based
[25] = system: Mus musculus; test: Hypolipidemic activity in 24hrs fasted tyloxapol induced NAFLD Kunming mouse model assessed as decrease in epididymis in white adipose tissue at 200 mg/kg, IG relative to control; type: functional, organism-based
[26] = system: HepG2; test: Hypolipidemic activity in sodium oleate and sodium palmitate induced human HepG2 cells assessed as decrease in intracellular triglyceride level at 50 uM; type: functional; design: scale not given: the % may be the effect or the level left
[27] = system: HepG2; test: Hypolipidemic activity in sodium oleate and sodium palmitate induced human HepG2 cells assessed as decrease in intracellular lipid content at 0.2 uM by Oil Red O staining based assay; type: functional, cell-based
[28] = system: Mus musculus; test: In vivo activation of AMPK pathway in 24hrs fasted tyloxapol induced NAFLD Kunming mouse model assessed as increase in ACC phosphorylation in liver at 200 mg/kg, IG and measured after 24 hrs by Western blot anlaysis; type: functional, organism-based
[29] = system: Mus musculus; test: Amelioration of hepatic lesion in 24hrs fasted tyloxapol induced NAFLD Kunming mouse model assessed as reduction in fat deposition at 50 to 200 mg/kg, IG by Oil red O staining based analysis; type: functional, organism-based; details: dose 50-200 mg/kg
[30] = system: Mus musculus; test: Hypolipidemic activity in 24hrs fasted tyloxapol induced NAFLD Kunming mouse model assessed as decrease in hepatic LDL-C level at 50 to 200 mg/kg, IG and measured after 24 hrs by biochemical analysis relative to control; type: functional, organism-based; details: dose 50-200 mg/kg
[31] = system: Mus musculus; test: Hypolipidemic activity in 24hrs fasted tyloxapol induced NAFLD Kunming mouse model assessed as decrease in serum LDL-C level at 50 to 200 mg/kg, IG and measured after 24 hrs by biochemical analysis relative to control; type: functional, organism-based; details: dose 50-200 mg/kg
[32] = system: Mus musculus; test: Reduction in oxidative stress in 24hrs fasted tyloxapol induced NAFLD Kunming mouse model assessed as increase in serum SOD level at 50 to 200 mg/kg, IG and measured after 24 hrs by biochemical analysis relative to control; type: functional, organism-based; details: dose 50-200 mg/kg
[33] = system: Mus musculus; test: Reduction in liver damage in 24hrs fasted tyloxapol induced NAFLD Kunming mouse model assessed as decrease in serum ALT level at 50 to 200 mg/kg, IG and measured after 24 hrs by biochemical analysis relative to control; type: functional, organism-based; details: dose 50-200 mg/kg
[34] = system: Mus musculus; test: Amelioration of hepatic lesion in 24hrs fasted tyloxapol induced NAFLD Kunming mouse model assessed as reduction in liver index at 50 to 200 mg/kg, IG; type: functional, organism-based; details: dose 50-200 mg/kg
[35] = system: HepG2; test: Hypolipidemic activity in sodium oleate and sodium palmitate induced human HepG2 cells assessed as decrease in intracellular lipid content at 0.2 to 50 uM by Oil Red O staining based assay; type: functional, cell-based; details: dose 0.2-50 µM
[36] = system: Mus musculus; test: Amelioration of hepatic lesion in 24hrs fasted tyloxapol induced NAFLD Kunming mouse model assessed as reduction in fat deposition at 50 to 200 mg/kg, IG by H and E staining based analysis; type: functional, organism-based; details: dose 50-200 mg/kg
[37] = system: HepG2; test: Hypolipidemic activity in sodium oleate and sodium palmitate induced human HepG2 cells assessed as decrease in intracellular triglyceride level at 1 uM; type: functional; design: scale not given: the % may be the effect or the level left
[38] = system: Mus musculus; test: Hypolipidemic activity in 24hrs fasted tyloxapol induced NAFLD Kunming mouse model assessed as decrease in hepatic TG level at 50 to 200 mg/kg, IG and measured after 24 hrs by biochemical analysis relative to control; type: functional, organism-based; details: dose 50-200 mg/kg
[39] = system: Mus musculus; test: Hypolipidemic activity in 24hrs fasted tyloxapol induced NAFLD Kunming mouse model assessed as decrease in hepatic TC level at 50 to 200 mg/kg, IG and measured after 24 hrs by biochemical analysis relative to control; type: functional, organism-based; details: dose 50-200 mg/kg
[40] = system: Mus musculus; test: Reduction in liver damage in 24hrs fasted tyloxapol induced NAFLD Kunming mouse model assessed as decrease in ALT level in liver at 50 to 200 mg/kg, IG and measured after 24 hrs by biochemical analysis relative to control; type: functional, organism-based; details: dose 50-200 mg/kg
[41] = system: Mus musculus; test: Amelioration of hepatic lesion in 24hrs fasted tyloxapol induced NAFLD Kunming mouse model assessed as reduction in hepatic steatosis at 50 to 200 mg/kg, IG by Oil red O staining based analysis; type: functional, organism-based; details: dose 50-200 mg/kg
[42] = system: Mus musculus; test: Amelioration of hepatic lesion in 24hrs fasted tyloxapol induced NAFLD Kunming mouse model assessed as reduction in liver morphology alteration at 50 to 200 mg/kg, IG; type: functional, organism-based; details: dose 50-200 mg/kg

O=c1cc(-c2ccc(O)c(O)c2)oc2cc(O[C@@H]3O[C@H](CO)[C@@H](O)[C@H](O)[C@H]3O)cc(O)c12 [GALUTEOLIN]
Activity [1]: 62.5% | Activity [2]: 53.2% | inhibition [3]: 18.1% | Activity [4]: Non-Toxic | inhibition [5]: 49.5%

O=C(O)CC(=O)OC[C@H]1O[C@@H](Oc2cc(O)c3c(=O)cc(-c4ccc(O)cc4)oc3c2)[C@H](O)[C@@H](O)[C@@H]1O
Activity [1]: 74.9% | Activity [2]: 67.3% | Activity [6]: Active | Activity [7]: Active | Activity [8]: 18.03% | Activity [9]: Active | Activity [10]: 54.7% | Activity [11]: Active | Activity [12]: Active | Activity [13]: Active | Activity [14]: 22.44% | Activity [15]: Active | Activity [16]: 55.1% | inhibition [3]: 35% | Activity [17]: Active | Activity [18]: Active | Activity [19]: Active | Activity [20]: 48.6% | Activity [21]: Active | Activity [22]: 23.68% | Activity [23]: Active | Activity [24]: Active | Activity [25]: Active | Activity [26]: 73% | Activity [27]: Active | Activity [28]: Active | Activity [29]: Active | Activity [30]: Active | Activity [31]: Active | Activity [32]: Active | Activity [33]: Active | Activity [34]: Active | Activity [35]: Dose-Dependent Effect | Activity [36]: Active | Activity [37]: 52.2% | Activity [4]: Non-Toxic | inhibition [5]: 47.2% | Activity [38]: Active | Activity [39]: Active | Activity [40]: Active | Activity [41]: Active | Activity [42]: Active

O=c1cc(-c2ccc(O)c(O)c2)oc2cc(O)cc(O)c12 [LUTEOLIN]
Activity [1]: 91.6% | inhibition [3]: 27.4% | Activity [4]: Toxic | inhibition [5]: 41.2%

O=c1cc(-c2ccc(O)cc2)oc2cc(O)cc(O)c12 [APIGENIN]
Activity [1]: 92.4% | inhibition [3]: 26.7% | Activity [4]: Toxic | inhibition [5]: 56.3%
